According to PubChem BioAssay (NCI):
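How tested: cells in 96-well plates exposed to compound for 48 hours at five concentrations. TGI: total growth inhibition.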

Key:
Test in all cases: inhibition of tumour cell growth, NCI panel, 48 h
A498 renal = system: A498 renal
A549 NSCLC = system: A549 NSCLC
EKVX NSCLC = system: EKVX NSCLC
MCF7 breast = system: MCF7 breast
NCI-H522 lung = system: NCI-H522 lung
SNB-75 CNS = system: SNB-75 CNS
TK-10 renal = system: TK-10 renal
DLD-1 colon = system: DLD-1 colon
DMS 114 small cell lung = system: DMS 114 small cell lung
DMS 273 small cell lung = system: DMS 273 small cell lung
KM20L2 colon = system: KM20L2 colon
M19-MEL melanoma = system: M19-MEL melanoma
SNB-78 CNS = system: SNB-78 CNS

CCOC(=O)C1CCCCN1C(=O)Cc1c[nH]c2ccccc12 (stereo unspecified)
TGI (A498 renal): > 100 µM | TGI (A549 NSCLC): > 100 µM | TGI (EKVX NSCLC): > 100 µM | TGI (MCF7 breast): > 100 µM | TGI (NCI-H522 lung): > 100 µM | TGI (SNB-75 CNS): > 100 µM | TGI (TK-10 renal): > 100 µM

CCC1C(c2ccccc2O)c2cc3c(cc2OC1N1CCOCC1)OCO3 (stereo unspecified)
TGI (A498 renal): 27.5 µM | TGI (A549 NSCLC): 29.9 µM | TGI (EKVX NSCLC): 25.4 µM | TGI (MCF7 breast): 28.2 µM | TGI (NCI-H522 lung): 28 µM | TGI (SNB-75 CNS): 22.7 µM | TGI (TK-10 renal): 28 µM

CSc1c(C#N)c(N)n(-c2ccc(Cl)cc2)c(=O)c1C#N
TGI (A498 renal): > 100 µM | TGI (A549 NSCLC): > 100 µM | TGI (EKVX NSCLC): > 100 µM | TGI (MCF7 breast): > 100 µM | TGI (NCI-H522 lung): > 100 µM | TGI (SNB-75 CNS): > 100 µM | TGI (TK-10 renal): > 100 µM

O=C(c1ccco1)N(C(=O)N1CCN(c2ccccc2)CC1)S(=O)(=O)c1ccccc1
TGI (A498 renal): > 100 µM | TGI (A549 NSCLC): > 100 µM | TGI (EKVX NSCLC): 60.2 µM | TGI (MCF7 breast): 84 µM | TGI (NCI-H522 lung): 41.2 µM | TGI (SNB-75 CNS): 62.9 µM | TGI (TK-10 renal): > 100 µM

CN1CCN(P2(=S)Oc3ccc4ccccc4c3-c3c(ccc4ccccc34)O2)CC1
TGI (A498 renal): > 100 µM | TGI (A549 NSCLC): > 100 µM | TGI (DLD-1 colon): > 100 µM | TGI (DMS 114 small cell lung): > 100 µM | TGI (DMS 273 small cell lung): 73 µM | TGI (EKVX NSCLC): > 77.8 µM | TGI (KM20L2 colon): > 61.7 µM | TGI (M19-MEL melanoma): > 100 µM | TGI (MCF7 breast): > 81.2 µM | TGI (NCI-H522 lung): 64 µM | TGI (SNB-75 CNS): > 100 µM | TGI (SNB-78 CNS): > 100 µM

CCCCNc1nc(NC2OCC(OC(C)=O)C(OC(C)=O)C2OC(C)=O)c(N=O)c(=O)n1C (stereo unspecified)
TGI (A498 renal): > 10 µM | TGI (A549 NSCLC): > 10 µM | TGI (EKVX NSCLC): > 10 µM | TGI (MCF7 breast): > 10 µM | TGI (NCI-H522 lung): > 10 µM | TGI (SNB-75 CNS): > 10 µM | TGI (TK-10 renal): > 10 µM

CCOC(=O)Cn1nnc2ccc(Nc3nc4ccccc4nc3-c3ccccc3)cc21
TGI (A498 renal): > 100 µM | TGI (A549 NSCLC): > 100 µM | TGI (EKVX NSCLC): > 100 µM | TGI (MCF7 breast): > 100 µM | TGI (NCI-H522 lung): > 100 µM | TGI (SNB-75 CNS): 99.1 µM | TGI (TK-10 renal): 62.5 µM

c1ccc(N=C2c3ccsc3C(=Nc3ccccc3)c3ccsc32)cc1
TGI (A498 renal): 14.8 µM | TGI (A549 NSCLC): 4.1 µM | TGI (EKVX NSCLC): 4.31 µM | TGI (MCF7 breast): 4.79 µM | TGI (NCI-H522 lung): 4.34 µM | TGI (SNB-75 CNS): 2.45 µM | TGI (TK-10 renal): 13.7 µM

CCCCCCCCCCCC[N+](CCCCCCCCCCCC)=C1SCCS1
TGI (A498 renal): 29.4 µM | TGI (A549 NSCLC): 18 µM | TGI (DLD-1 colon): 21.2 µM | TGI (DMS 114 small cell lung): 3.58 µM | TGI (DMS 273 small cell lung): 11.4 µM | TGI (EKVX NSCLC): 26 µM | TGI (KM20L2 colon): 18.4 µM | TGI (M19-MEL melanoma): 8.43 µM | TGI (NCI-H522 lung): 19.5 µM | TGI (SNB-75 CNS): 30 µM | TGI (SNB-78 CNS): 14.6 µM | TGI (TK-10 renal): 28.8 µM

CCOC(=O)c1c[nH]c2ccc3c(c2c1=O)S(=O)(=O)CC3 (tested in a mixture with another compound)
TGI (A498 renal): > 100 µM | TGI (A549 NSCLC): > 100 µM | TGI (DLD-1 colon): > 100 µM | TGI (DMS 114 small cell lung): > 100 µM | TGI (DMS 273 small cell lung): > 100 µM | TGI (EKVX NSCLC): > 100 µM | TGI (KM20L2 colon): > 100 µM | TGI (M19-MEL melanoma): > 100 µM | TGI (MCF7 breast): > 100 µM | TGI (NCI-H522 lung): > 100 µM | TGI (SNB-75 CNS): > 100 µM | TGI (SNB-78 CNS): > 100 µM

CC1(C)CC(=O)c2c(nc3c4c([nH]c(-c5ccc(Br)cc5)c24)CC(C)(C)C3)C1
TGI (A498 renal): 86.7 µM | TGI (A549 NSCLC): > 100 µM | TGI (EKVX NSCLC): > 100 µM | TGI (MCF7 breast): > 100 µM | TGI (NCI-H522 lung): > 100 µM | TGI (SNB-75 CNS): > 100 µM | TGI (TK-10 renal): > 100 µM

Cc1cc(NS(=O)(=O)c2ccc(NC(=O)c3cccc4c(Nc5ccc(S(N)(=O)=O)cc5)c5ccccc5nc34)cc2)no1
TGI (A498 renal): > 100 µM | TGI (DLD-1 colon): > 100 µM | TGI (DMS 114 small cell lung): > 100 µM | TGI (EKVX NSCLC): > 100 µM | TGI (M19-MEL melanoma): > 100 µM | TGI (NCI-H522 lung): > 100 µM | TGI (SNB-75 CNS): > 100 µM | TGI (SNB-78 CNS): > 100 µM | TGI (TK-10 renal): > 100 µM

COc1cc(CNc2nc3ccccc3nc2C(=O)O)cc(OC)c1OC
TGI (A498 renal): > 100 µM | TGI (A549 NSCLC): > 100 µM | TGI (EKVX NSCLC): > 100 µM | TGI (MCF7 breast): > 100 µM | TGI (NCI-H522 lung): > 100 µM | TGI (SNB-75 CNS): > 100 µM | TGI (TK-10 renal): > 100 µM

O=C1c2c(Br)sc(Br)c2[C@@H](NC(=O)C(F)(F)F)C1Br (stereo partly specified)
TGI (A498 renal): 28.7 µM | TGI (A549 NSCLC): 32.7 µM | TGI (EKVX NSCLC): 11.6 µM | TGI (MCF7 breast): 15.6 µM | TGI (NCI-H522 lung): 5.07 µM | TGI (SNB-75 CNS): 16.1 µM | TGI (TK-10 renal): 30.5 µM

O=C1NC2CCCCCC2C12CCCCC2 (stereo unspecified)
TGI (A498 renal): > 100 µM | TGI (A549 NSCLC): > 100 µM | TGI (DLD-1 colon): > 100 µM | TGI (DMS 114 small cell lung): > 100 µM | TGI (EKVX NSCLC): > 100 µM | TGI (KM20L2 colon): > 100 µM | TGI (M19-MEL melanoma): > 100 µM | TGI (SNB-75 CNS): > 100 µM | TGI (SNB-78 CNS): > 100 µM | TGI (TK-10 renal): > 100 µM

COc1ccc(C2=NOC(N)(c3ccc(OC)cc3)C2)cc1 (stereo unspecified)
TGI (A498 renal): > 100 µM | TGI (A549 NSCLC): > 100 µM | TGI (EKVX NSCLC): > 100 µM | TGI (MCF7 breast): > 100 µM | TGI (NCI-H522 lung): > 100 µM | TGI (SNB-75 CNS): > 100 µM | TGI (TK-10 renal): > 100 µM

CC[C@@]1(O)C(=O)OCc2c1cc1n(c2=O)Cc2c-1nc1ccccc1c2/C=N\NC(=O)C(N)CCSC (stereo partly specified)
TGI (A498 renal): 0.359 µM | TGI (A549 NSCLC): 3.19 µM | TGI (EKVX NSCLC): > 100 µM | TGI (MCF7 breast): 1.84 µM | TGI (NCI-H522 lung): 2.02 µM | TGI (SNB-75 CNS): 1.44 µM | TGI (TK-10 renal): > 100 µM

C=CCOc1ccc(C2C(C(=O)OC)C(=O)CC(O)(c3ccccc3)C2C(=O)OC)cc1OC (stereo unspecified)
TGI (A498 renal): 76.4 µM | TGI (A549 NSCLC): > 100 µM | TGI (EKVX NSCLC): > 100 µM | TGI (MCF7 breast): 61.3 µM | TGI (NCI-H522 lung): 50.5 µM | TGI (SNB-75 CNS): 98.3 µM | TGI (TK-10 renal): > 100 µM

Clc1ccc2oc(CCc3ccccc3)nc2c1
TGI (A498 renal): 60 µM | TGI (A549 NSCLC): > 100 µM | TGI (EKVX NSCLC): > 100 µM | TGI (MCF7 breast): > 100 µM | TGI (NCI-H522 lung): > 100 µM | TGI (SNB-75 CNS): 62.8 µM | TGI (TK-10 renal): > 100 µM

COC(=O)C1CCC(=O)N1C(c1ccc2c(c1)OCO2)c1cc(OC)c(OC)c(OC)c1 (stereo unspecified)
TGI (A498 renal): > 100 µM | TGI (A549 NSCLC): > 100 µM | TGI (EKVX NSCLC): > 100 µM | TGI (MCF7 breast): > 100 µM | TGI (NCI-H522 lung): 24.4 µM | TGI (SNB-75 CNS): > 100 µM | TGI (TK-10 renal): > 100 µM

O=C(O)c1cc(CCc2cc(O)ccc2O)ccc1O
TGI (A498 renal): > 100 µM | TGI (A549 NSCLC): > 100 µM | TGI (EKVX NSCLC): > 100 µM | TGI (MCF7 breast): > 100 µM | TGI (NCI-H522 lung): > 100 µM | TGI (SNB-75 CNS): > 100 µM | TGI (TK-10 renal): > 100 µM

CCN(CC)c1nnc(CCCCCCCCc2nnc(N(CC)CC)o2)o1
TGI (A498 renal): > 100 µM | TGI (A549 NSCLC): > 100 µM | TGI (EKVX NSCLC): > 100 µM | TGI (MCF7 breast): > 100 µM | TGI (NCI-H522 lung): > 100 µM | TGI (SNB-75 CNS): > 100 µM | TGI (TK-10 renal): > 100 µM

NC(Cc1ccc(S(=O)(=O)O)cc1)C(=O)NC(Cc1ccc(S(=O)(=O)O)cc1)C(=O)NC(Cc1ccc(S(=O)(=O)O)cc1)C(=O)NC(Cc1ccc(S(=O)(=O)O)cc1)C(=O)O (stereo unspecified)
TGI (A498 renal): > 100 µM | TGI (A549 NSCLC): > 100 µM | TGI (EKVX NSCLC): > 100 µM | TGI (MCF7 breast): > 100 µM | TGI (NCI-H522 lung): > 100 µM | TGI (SNB-75 CNS): > 100 µM | TGI (TK-10 renal): > 100 µM
